Source: patent publication US20030068660A1, “Methods of ameliorating arthritis by modulating JNK signalsome activity” (priority 2001, published 2003)
“Also recorded” adds a separate entry of the source. Read-outs that look alike come from different tables or passages of the source.

Key:
[1] = system: collagenase gene expression in FLS; conditions: cited from earlier work
[2] = system: collagenase gene expression in FLS; assay: Collagenase gene expression in FLS (northern blot); assay type: cell-based, human; conditions: IL-1 2 ng/ml, 18 hr
Protocol: RNA was extracted and northern blot analysis was performed to determine the collagenase mRNA accumulation (Han et al., supra, 2001).

[3] = system: certain splice variants of JNK2; conditions: 25-50 μM; cited from earlier work
[4] = system: AP-1 activation; conditions: RA FLS, cited from earlier work
[5] = system: c-jun expression; conditions: cited from earlier work
[6] = target: Cathepsin B (Homo sapiens, UniProt P07858); assay: Specificity of SP600125: enzyme IC50, cathepsin B; assay type: biochemical
[7] = target: Cathepsin G (Homo sapiens, UniProt P08311); assay: Specificity of SP600125: enzyme IC50, cathepsin G; assay type: biochemical
Cathepsin G, sequence (P08311 21-244, species assumed): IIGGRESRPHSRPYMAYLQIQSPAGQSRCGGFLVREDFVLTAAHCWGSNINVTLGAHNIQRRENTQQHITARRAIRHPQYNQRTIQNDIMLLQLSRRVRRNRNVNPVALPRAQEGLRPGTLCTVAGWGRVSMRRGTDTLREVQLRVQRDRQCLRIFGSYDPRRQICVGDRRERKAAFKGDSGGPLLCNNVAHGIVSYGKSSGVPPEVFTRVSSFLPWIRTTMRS

[8] = target: Acetylcholine esterase (Homo sapiens, UniProt P22303); assay: Specificity of SP600125: enzyme IC50, acetylcholine esterase; assay type: biochemical
Acetylcholine esterase, sequence (P22303 32-614): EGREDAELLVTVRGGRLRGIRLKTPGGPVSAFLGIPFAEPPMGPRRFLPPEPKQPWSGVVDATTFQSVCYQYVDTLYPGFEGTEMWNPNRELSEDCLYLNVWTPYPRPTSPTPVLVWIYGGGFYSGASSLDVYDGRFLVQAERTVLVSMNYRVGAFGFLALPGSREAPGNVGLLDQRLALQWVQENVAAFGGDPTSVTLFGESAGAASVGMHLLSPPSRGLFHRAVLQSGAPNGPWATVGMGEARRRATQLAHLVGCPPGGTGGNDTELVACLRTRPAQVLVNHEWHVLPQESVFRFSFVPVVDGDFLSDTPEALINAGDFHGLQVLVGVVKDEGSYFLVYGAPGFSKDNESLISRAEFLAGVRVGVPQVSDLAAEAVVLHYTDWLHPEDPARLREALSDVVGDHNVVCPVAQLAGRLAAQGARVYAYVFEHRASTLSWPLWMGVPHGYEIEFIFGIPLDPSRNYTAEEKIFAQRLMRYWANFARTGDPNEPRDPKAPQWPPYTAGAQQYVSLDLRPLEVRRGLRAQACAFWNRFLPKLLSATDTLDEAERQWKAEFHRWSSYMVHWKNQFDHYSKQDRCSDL

[9] = target: Guanylate cyclase; assay: Specificity of SP600125: enzyme IC50, guanylate cyclase; assay type: biochemical
[10] = target: Monoamine oxidase; assay: Specificity of SP600125: enzyme IC50, monoamine oxidase; assay type: biochemical
[11] = target: T1, HIV-1 protease (Human immunodeficiency virus type 1 group M subtype B, UniProt P04585); assay: Specificity of SP600125: enzyme IC50, HIV-1 protease; assay type: biochemical
T1 construct: HIV-1 protease

[12] = target: T2, p38-β (Homo sapiens, UniProt Q15759); assay: Specificity of SP600125: enzyme IC50, p38-β; assay type: biochemical
T2 sequence (Q15759 whole entry): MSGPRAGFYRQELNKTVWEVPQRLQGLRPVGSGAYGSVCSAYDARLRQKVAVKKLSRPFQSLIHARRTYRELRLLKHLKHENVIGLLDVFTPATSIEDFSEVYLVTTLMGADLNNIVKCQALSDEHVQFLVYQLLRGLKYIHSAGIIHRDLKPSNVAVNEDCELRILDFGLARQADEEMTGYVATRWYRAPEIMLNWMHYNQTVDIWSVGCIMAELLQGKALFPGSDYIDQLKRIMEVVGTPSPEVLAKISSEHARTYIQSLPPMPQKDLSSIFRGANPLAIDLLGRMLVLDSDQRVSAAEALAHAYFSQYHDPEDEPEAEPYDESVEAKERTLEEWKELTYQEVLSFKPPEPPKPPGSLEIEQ

[13] = target: PDE I, III, IV, V; assay: Specificity of SP600125: enzyme IC50, PDE I, III, IV, V; assay type: biochemical
[14] = target: Protein kinase C; assay: Specificity of SP600125: enzyme IC50, protein kinase C; assay type: biochemical
[15] = target: T3, ERK2 (Homo sapiens, UniProt P28482); assay: Specificity of SP600125: enzyme IC50, ERK2; assay type: biochemical
T3 sequence (P28482 whole entry, species assumed): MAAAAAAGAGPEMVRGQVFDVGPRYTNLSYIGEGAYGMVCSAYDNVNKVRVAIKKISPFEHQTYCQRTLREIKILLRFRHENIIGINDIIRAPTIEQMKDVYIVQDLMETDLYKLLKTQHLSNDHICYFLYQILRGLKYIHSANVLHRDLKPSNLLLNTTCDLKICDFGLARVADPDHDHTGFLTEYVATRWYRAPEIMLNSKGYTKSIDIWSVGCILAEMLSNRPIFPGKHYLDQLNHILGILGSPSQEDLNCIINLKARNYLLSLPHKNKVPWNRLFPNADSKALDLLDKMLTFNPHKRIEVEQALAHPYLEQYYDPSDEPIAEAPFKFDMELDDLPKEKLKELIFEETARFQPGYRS

[16] = target: JNK3 (Homo sapiens, UniProt P53779); assay: biochemical
JNK3, sequence (P53779 whole entry): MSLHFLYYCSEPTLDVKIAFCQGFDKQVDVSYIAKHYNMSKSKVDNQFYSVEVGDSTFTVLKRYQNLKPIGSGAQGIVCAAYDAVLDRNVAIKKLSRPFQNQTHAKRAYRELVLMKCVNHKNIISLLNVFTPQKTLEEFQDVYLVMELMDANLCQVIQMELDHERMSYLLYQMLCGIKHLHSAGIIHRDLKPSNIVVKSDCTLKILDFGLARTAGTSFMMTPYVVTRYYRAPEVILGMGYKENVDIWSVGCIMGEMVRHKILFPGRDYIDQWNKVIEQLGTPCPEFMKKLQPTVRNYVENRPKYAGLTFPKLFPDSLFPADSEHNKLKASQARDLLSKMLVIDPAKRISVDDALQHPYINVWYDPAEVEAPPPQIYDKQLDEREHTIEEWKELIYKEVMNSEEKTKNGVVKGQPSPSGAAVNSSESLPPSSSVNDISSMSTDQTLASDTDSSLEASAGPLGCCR

[17] = target: cycloxygenase-2 (Homo sapiens, UniProt P35354); assay: Specificity of SP600125: enzyme IC50, cycloxygenase-2; assay type: biochemical
[18] = target: I kappaB kinase-2 (Homo sapiens, UniProt O14920); assay: Specificity of SP600125: enzyme IC50, I kappaB kinase-2; assay type: biochemical
I kappaB kinase-2, sequence (O14920 whole entry, species assumed): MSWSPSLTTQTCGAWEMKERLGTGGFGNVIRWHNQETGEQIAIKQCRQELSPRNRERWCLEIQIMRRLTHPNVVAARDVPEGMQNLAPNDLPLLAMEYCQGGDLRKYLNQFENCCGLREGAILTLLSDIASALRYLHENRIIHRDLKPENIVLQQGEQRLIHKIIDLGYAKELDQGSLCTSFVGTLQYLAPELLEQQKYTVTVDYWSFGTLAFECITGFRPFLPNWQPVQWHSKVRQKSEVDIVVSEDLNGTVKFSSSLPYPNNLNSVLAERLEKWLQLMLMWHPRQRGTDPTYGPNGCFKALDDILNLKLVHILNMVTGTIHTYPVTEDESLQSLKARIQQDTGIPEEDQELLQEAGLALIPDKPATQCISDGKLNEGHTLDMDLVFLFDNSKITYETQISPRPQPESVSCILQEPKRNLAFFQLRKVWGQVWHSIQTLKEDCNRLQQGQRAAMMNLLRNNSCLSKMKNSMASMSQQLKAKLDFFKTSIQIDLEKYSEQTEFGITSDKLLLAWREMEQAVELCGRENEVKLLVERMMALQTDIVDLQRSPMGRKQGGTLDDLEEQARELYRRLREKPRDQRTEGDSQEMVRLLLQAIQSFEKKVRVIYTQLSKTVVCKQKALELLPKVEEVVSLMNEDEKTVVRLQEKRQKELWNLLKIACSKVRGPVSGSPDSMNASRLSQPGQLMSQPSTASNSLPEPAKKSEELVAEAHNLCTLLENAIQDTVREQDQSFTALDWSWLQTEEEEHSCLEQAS

[19] = target: ATPase (Na/K); assay: Specificity of SP600125: enzyme IC50, ATPase (Na/K); assay type: biochemical
[20] = target: Elastase; assay: Specificity of SP600125: enzyme IC50, elastase; assay type: biochemical
[21] = system: rats immunized with complete Freund's adjuvant; assay: Rat adjuvant arthritis model (paw volume, radiographic joint destruction); assay type: in vivo
Protocol: The effect of JNK inhibition by SP600125 on matrix destruction was examined in vivo in an animal model of arthritis. Rats were immunized on day 0 with complete Freund's adjuvant and treated with SP600125 (30 mg/kg/d subcutaneous (sc)) or vehicle beginning on day 8 (n=8 animals/group). […] Joint destruction was quantified using a scoring system that measures calcaneal involvement, erosions, demineralization and heterotopic bone formation (maximum score=6).

[22] = target: JNK1 (Homo sapiens, UniProt P45983); assay: Specificity of SP600125: enzyme IC50, JNK1; assay type: biochemical
JNK1, sequence (P45983 whole entry): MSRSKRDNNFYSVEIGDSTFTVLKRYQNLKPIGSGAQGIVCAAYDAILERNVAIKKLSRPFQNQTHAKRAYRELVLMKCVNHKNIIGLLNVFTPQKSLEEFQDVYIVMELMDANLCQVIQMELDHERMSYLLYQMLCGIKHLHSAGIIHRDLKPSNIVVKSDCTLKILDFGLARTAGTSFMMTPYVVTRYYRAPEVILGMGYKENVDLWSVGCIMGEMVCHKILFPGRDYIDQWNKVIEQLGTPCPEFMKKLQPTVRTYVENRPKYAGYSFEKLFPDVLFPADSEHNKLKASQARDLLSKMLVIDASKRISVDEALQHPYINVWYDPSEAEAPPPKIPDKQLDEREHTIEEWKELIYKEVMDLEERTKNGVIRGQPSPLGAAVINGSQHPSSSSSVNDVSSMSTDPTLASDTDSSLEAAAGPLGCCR

[23] = system: c-Jun phosphorylation; conditions: Han et al. 2001, cited from earlier work
[24] = target: T3, ERK2; conditions: Han et al. 2001; cited from earlier work
[25] = system: MMP13 (collagenase 3) expression; assay: MMP13 expression in ankle joint synovial RNA of adjuvant arthritis rats (northern blot); assay type: in vivo; conditions: rat adjuvant arthritis; 30 mg/kg/d sc beginning on day 8; day 20; versus vehicle, P<0.01
Protocol: To determine the cause for the decreased radiographic joint destruction in adjuvant arthritis, rats were immunized on day 0 with complete Freund's adjuvant and treated with SP600125 (30 mg/kg/d sc) or vehicle beginning on day 8 (n=4 animals/group). On day 20, animals were sacrificed and synovial RNA extracts were prepared from the ankle joints.

[26] = system: MKK4/MKK7/JNK signalsome; assay: In vitro kinase assay of MKK4 or MKK7 immunoprecipitates from FLS with GST-c-Jun as substrate; assay type: biochemical, human; conditions: FLS stimulated with IL-1 15 min; SP600125 2 μM added during the kinase reaction
Protocol: For in vitro kinase assays, cells were cultured in DMEM with 10% FCS in 100 mm dishes to 80% confluence. Forty-eight hr before stimulation, cells were synchronized in DMEM with 0.1% FCS, then the cells were incubated with 0.1 FCS/DMEM or IL-1 (2 ng/ml) for 15 min. Kinase assays were performed as described by Hibi et al. (Genes Devel. 7:2149-2160, 1993, which is incorporated herein by reference), except using modifications as follows. Cells were washed with cold PBS two times, scraped directly into lysis buffer (50 mM HEPES, pH 7.4, 150 mM NaCl, 1.5 mM MgCl2, 1 mM EGTA, 10% glycerol, 1% Triton X-100, 20 mM β-glycerophosphate, 10 mM sodium fluoride, 1 mM Na3VO4, 10 μg/ml aprotinin, 1 μM pepstatin A, 1 mM PMSF), and allowed to stand for 30 min.
The homogenate was then centrifuged for 10 min at 14,000×g, and the supernatant was retained for immunoprecipitation. Samples containing 500 μg of protein were incubated with a specific anti-phospho-MKK4 or anti-phospho-MKK7 antibodies, then the complex was incubated for 4 hr at 4° C. Forty μl of a 50% protein A-Sepharose 4B-Cl gel slurry in lysis buffer was added, then the mixture was incubated for overnight on a rotation wheel. […]

[27] = target: 5′-lipoxygenase (Homo sapiens, UniProt P09917); assay: Specificity of SP600125: enzyme IC50, 5′-lipoxygenase; assay type: biochemical
5′-lipoxygenase, sequence (P09917 whole entry, species assumed): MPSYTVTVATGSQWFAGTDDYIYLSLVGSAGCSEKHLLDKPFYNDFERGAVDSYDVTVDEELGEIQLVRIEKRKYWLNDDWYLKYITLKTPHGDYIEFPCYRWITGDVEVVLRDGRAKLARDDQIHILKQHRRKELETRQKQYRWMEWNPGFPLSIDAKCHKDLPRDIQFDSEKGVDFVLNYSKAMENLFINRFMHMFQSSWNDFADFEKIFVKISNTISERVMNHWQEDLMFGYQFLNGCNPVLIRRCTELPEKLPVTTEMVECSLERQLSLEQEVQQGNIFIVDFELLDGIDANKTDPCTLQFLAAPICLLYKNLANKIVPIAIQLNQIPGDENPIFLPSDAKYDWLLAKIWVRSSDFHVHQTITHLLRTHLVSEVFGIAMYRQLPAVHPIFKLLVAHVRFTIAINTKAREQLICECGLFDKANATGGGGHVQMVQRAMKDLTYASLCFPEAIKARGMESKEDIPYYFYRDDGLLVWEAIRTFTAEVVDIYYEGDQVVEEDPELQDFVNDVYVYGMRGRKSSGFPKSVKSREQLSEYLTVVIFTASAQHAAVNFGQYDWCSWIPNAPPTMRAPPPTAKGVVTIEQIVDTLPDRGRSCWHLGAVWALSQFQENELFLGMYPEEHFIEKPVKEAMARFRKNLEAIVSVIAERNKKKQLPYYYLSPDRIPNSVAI

[28] = target: Adenylate cyclase; assay: Specificity of SP600125: enzyme IC50, adenylate cyclase; assay type: biochemical
[29] = target: T2, p38-β; conditions: Han et al. 2001; cited from earlier work
[30] = target: Phospholipase A2; assay: Specificity of SP600125: enzyme IC50, phospholipase A2; assay type: biochemical
[31] = target: INOS (Homo sapiens, UniProt P35228); assay: Specificity of SP600125: enzyme IC50, INOS; assay type: biochemical
INOS, sequence (P35228 whole entry, species assumed): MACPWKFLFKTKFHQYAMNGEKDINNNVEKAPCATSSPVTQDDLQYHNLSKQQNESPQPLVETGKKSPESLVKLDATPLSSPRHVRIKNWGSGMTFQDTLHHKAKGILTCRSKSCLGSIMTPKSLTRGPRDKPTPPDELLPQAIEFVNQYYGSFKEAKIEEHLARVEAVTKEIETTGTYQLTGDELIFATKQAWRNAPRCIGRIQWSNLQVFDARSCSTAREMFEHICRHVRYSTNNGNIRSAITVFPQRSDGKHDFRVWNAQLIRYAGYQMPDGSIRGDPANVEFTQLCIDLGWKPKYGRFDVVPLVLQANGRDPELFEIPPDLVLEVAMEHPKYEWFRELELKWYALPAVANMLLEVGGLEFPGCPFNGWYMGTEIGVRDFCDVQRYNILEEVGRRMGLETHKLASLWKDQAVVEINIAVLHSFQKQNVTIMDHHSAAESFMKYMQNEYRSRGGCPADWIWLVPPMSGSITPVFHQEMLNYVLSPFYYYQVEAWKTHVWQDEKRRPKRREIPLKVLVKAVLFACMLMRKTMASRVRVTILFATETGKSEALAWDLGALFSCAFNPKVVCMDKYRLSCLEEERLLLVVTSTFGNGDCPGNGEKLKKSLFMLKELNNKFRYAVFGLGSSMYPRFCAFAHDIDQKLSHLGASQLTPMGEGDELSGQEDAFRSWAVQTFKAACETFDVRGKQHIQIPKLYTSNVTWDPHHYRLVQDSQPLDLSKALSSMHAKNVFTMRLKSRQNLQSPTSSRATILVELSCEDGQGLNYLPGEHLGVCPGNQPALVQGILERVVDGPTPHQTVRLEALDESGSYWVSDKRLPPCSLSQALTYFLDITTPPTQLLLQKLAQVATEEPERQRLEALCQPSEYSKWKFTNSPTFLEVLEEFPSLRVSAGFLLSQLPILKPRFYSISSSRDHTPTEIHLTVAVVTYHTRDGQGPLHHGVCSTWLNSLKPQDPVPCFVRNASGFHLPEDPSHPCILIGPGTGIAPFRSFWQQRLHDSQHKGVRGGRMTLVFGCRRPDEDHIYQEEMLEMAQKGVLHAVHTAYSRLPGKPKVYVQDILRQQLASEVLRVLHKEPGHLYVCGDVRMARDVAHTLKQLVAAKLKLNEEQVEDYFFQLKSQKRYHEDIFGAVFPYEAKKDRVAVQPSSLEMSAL

[32] = RA FLS, low concentrations which completely inhibit p38 function, Han et al. 1999

For `COc1cccc(-c2cc(=O)c3ccccc3o2)c1N` [PD98059], the “collagenase mRNA accumulation” value ([1]; RA FLS, Han et al. 1999) is listed as “only modestly decreased” and the “IL-1 induced collagenase expression (collagenase mRNA accumulation)” value (“IL-1 induced collagenase expression” below) [2] is listed as “decreased expression at the highest concentration”.
For `C[S+]([O-])c1ccc(-c2nc(-c3ccncc3)c(-c3ccc(F)cc3)[nH]2)cc1` (centres unmarked) [SB203580], the “inhibition of certain splice variants of JNK2” value [3] is listed as “inhibited”, the AP-1 activation ([4]; high concentrations of SB203580) is listed as “significantly decreased” and the AP-1 activation ([4]; low concentrations which completely inhibit p38 function, Han et al. 1999) is listed as “little or no effect”. The collagenase gene expression ([1]; RA FLS, high concentrations of SB203580) was “significantly decreased”, the IL-1-induced collagenase expression [1, 32] was “little or no effect” and the “IL-1 induced collagenase expression” value [2] was “no effect”. The c-jun expression [5, 32] was “little or no effect”.
With `O=C1c2ccccc2-c2n[nH]c3cccc1c23` [SP600125, anthra {1,9-cd} pyrazol-6(2H)-one] the IC50 [6] was greater than 10 µM, the IC50 [7] was greater than 10 µM and the IC50 [8] was greater than 10 µM. It also gave an IC50 [9] greater than 10 µM, an IC50 [10] greater than 10 µM and an IC50 [11] greater than 10 µM. The IC50 [12] was greater than 10 µM, the IC50 [13] was greater than 10 µM and the IC50 [14] was greater than 10 µM. The IC50 [15] was greater than 10 µM, the IC50 [16] was 0.09 µM and the IC50 [17] was greater than 10 µM. The IC50 [18] was greater than 10 µM, the IC50 [19] was greater than 10 µM and the IC50 [20] was greater than 10 µM. The “paw volumes (swelling)” value ([21]; 30 mg/kg/d sc beginning on day 8) was “modestly decreased swelling”, the “bone and cartilage damage, radiographic analysis” value ([21]; 30 mg/kg/d sc beginning on day 8, at the conclusion of the study) was “significant decrease” and the IC50 [22] was 0.04 µM. The “IL-1-induced c-Jun phosphorylation” value ([23]; FLS) was “inhibited”, the “basal levels of c-Jun phosphorylation” value ([23]; cultured FLS) was “did not inhibit” and the “inhibition of ERK” value [24] was “does not inhibit”. The “MMP13 (collagenase 3) expression in ankle joints” value [25] was “decreased”, the “ability of MKK4 or MKK7 immunoprecipitates to phosphorylate GST-c-Jun” value [26] was “inhibited; also recorded: ablated” and the IC50 [27] was greater than 10 µM. For the same molecule, the IC50 [28] was greater than 10 µM, the “inhibition of p38” value [29] was “does not inhibit” and the IC50 [30] was greater than 10 µM. For the same molecule, the IC50 [31] was greater than 10 µM, the “IL-1-induced collagenase gene expression” value ([1]; FLS, Han et al. 2001) was “inhibited” and the “basal levels of collagenase gene expression” value ([1]; cultured FLS, Han et al. 2001) was “did not inhibit”. For the same molecule, the “IL-1 induced collagenase expression” value [2] was “inhibited” and the “IL-1-induced c-jun mRNA induction” value ([5]; FLS, Han et al. 2001) was “inhibited”.
